Common to all, as to type: cell-based
In one assay the test system is HIV-1 wild type IIIB. The assay is described as follows: Single cycle infectivity assay in HeLa P4-2 cells, wild type virus. The procedure:
(§1) An assay for measuring the inhibition of acute HIV-1 infection with HeLa P4-2 cells in a single cycle infectivity assay was conducted using methods described in Joyce et al., J. Biol. Chem. 2002, 277: 45811, Hazuda et al., Science 2000, 287: 646, and Kimpton et al, J. Virol. 1992, 66: 2232. Proviral plasmids encoding viruses containing specific mutations in the integrase gene (N155H, Q148R, Y143R, E92Q, or G140S/Q148H) were generated by site-directed mutagenesis, and viruses were produced by transfecting 293T cells with the appropriate proviral plasmids.

The next assay has as its system HIV-1. The experiment in a line: Inhibition of acute HIV-1 infection of T-lymphoid cells (spread assay). To be noted: 10% FBS, read-out: IC95 (nM) in the presence of 10% FBS. Here is the method:
Assays for the inhibition of acute HIV-1 infection of T-lymphoid cells were conducted in accordance with Vacca, J. P. et al., Proc. Natl. Acad. Sci. USA 1994, 91: 4096.

Assay [1] relates to HIV-1 integrase mutant virus G140S/Q148H. The experiment in a line: Single cycle infectivity assay in HeLa P4-2 cells, integrase mutant G140S/Q148H virus. To be noted: fold shift in IC50 versus wild type IIIB. The procedure:
as §1

The test system of assay [2] is HIV-1 integrase mutant virus Q148R. The assay is described as follows: Single cycle infectivity assay in HeLa P4-2 cells, integrase mutant Q148R virus. Conditions: fold shift in IC50 versus wild type IIIB. The procedure: as §1
The test system of assay [3] is HIV-1 integrase mutant virus N155H. The experiment in a line: Single cycle infectivity assay in HeLa P4-2 cells, integrase mutant N155H virus. Conditions: fold shift in IC50 versus wild type IIIB. Here is the method: as §1
The test system of assay [4] is HIV-1 integrase mutant virus Y143R. The experiment in a line: Single cycle infectivity assay in HeLa P4-2 cells, integrase mutant Y143R virus. Conditions: fold shift in IC50 versus wild type IIIB. Here is the method:
as §1

Where [5] appears, read: Human immunodeficiency virus 1, IIIB, HeLaP4-2, wild type IIIB.
Where [6] appears, read: Human immunodeficiency virus 1, T-lymphoid.

pIC50: −log10 of the molar value. Where two headings read alike, the source gives them in different places.

As usually defined, the pIC50 is the IC50 on a negative log10 scale, so that one unit is a factor of ten. Broadly, the IC95 is the concentration needed for an effect of 95%. In the assay on HIV-1 wild type IIIB (setting [5]), `CCN(C(=O)C(=O)N(C)C)C12CCC(Cn3c1nc(C(=O)NCc1ccc(F)c(C)c1)c(O)c3=O)OC2` (single isomer, unassigned) [Example 18B, N-ethyl-N-(4-{[(4-fluoro-3-methylbenzyl)amino]carbonyl}-5-hydroxy-6-oxo-10-oxa-3,7-diazatricyclo[7.2.2.0^2,7]trideca-2,4-dien-1-yl)-N,N-dimethylethanediamide] had a pIC50 of 8.00. Moreover, in the assay with HIV-1 (setting [6]), the IC95 amounted to 10.7 nM. Also, in assay [1], the “G140S/Q148H (shift)” value turned out to be 19 fold. In assay [2], the “Q148R (shift)” value amounted to 2 fold. Besides, the “N155H (shift)” value in assay [3] was determined as 2 fold. In assay [4], the “Y143R (shift)” value was 2 fold.

With `CCC12CCC(N(C)C(=O)C(=O)N(C)C)(CO1)c1nc(C(=O)NCc3ccc(F)cc3)c(O)c(=O)n1C2` (single isomer, unassigned) [Example 20A, N-(9-ethyl-4-{[(4-fluorolbenzyl)amino]carbonyl}-5-hydroxy-6-oxo-10-oxa-3,7-diazatricyclo[7.2.2.0^2,7]trideca-2,4-dien-1-yl)-N,N′,N′-trimethylethanediamide], the pIC50 in the assay on HIV-1 wild type IIIB (wild type IIIB) was 8.10. Moreover, the IC95 in the assay on HIV-1 (setting [6]) is 11 nM. In addition, the “G140S/Q148H (shift)” value in assay [1] was 21 fold. Further, the “Q148R (shift)” value in assay [2] came to 2 fold. Also, the “N155H (shift)” value in assay [3] stood at 3 fold. Also, the “Y143R (shift)” value in assay [4] was determined as 1 fold.

With `CCC12CCC(N(C)C(=O)C(=O)N(C)C)(CO1)c1nc(C(=O)NCc3ccc(F)cc3)c(O)c(=O)n1C2` (single isomer, unassigned) [Example 20B, N-(9-ethyl-4-{[(4-fluorolbenzyl)amino]carbonyl}-5-hydroxy-6-oxo-10-oxa-3,7-diazatricyclo[7.2.2.0^2,7]trideca-2,4-dien-1-yl)-N,N′,N′-trimethylethanediamide], the pIC50 in the assay on HIV-1 wild type IIIB (wild type IIIB) is 7.77. Also, the IC95 in the assay with HIV-1 is given as 16.7 nM. In addition, the “G140S/Q148H (shift)” value in assay [1] was found to be 102 fold. Further, the “Q148R (shift)” value in assay [2] was determined as 11 fold. The “N155H (shift)” value in assay [3] is 7 fold. The “Y143R (shift)” value in assay [4] turned out to be 1 fold.

`CN(C)C(=O)C(=O)N(C)C12CCC(C)(Cn3c1nc(C(=O)NCc1ccc(F)cc1)c(O)c3=O)OC2` (single isomer, unassigned) [Example 21A] gave a pIC50 with HIV-1 wild type IIIB (setting [5]) of 7.70. Also, the IC95 in the assay on HIV-1 (setting [6]) amounted to 20 nM. The “G140S/Q148H (shift)” value in assay [1] is given as 73 fold. The “Q148R (shift)” value in assay [2] is 3 fold. In addition, in assay [3], the “N155H (shift)” value is 3 fold. For the same compound, in assay [4], the “Y143R (shift)” value is on record as 1 fold.

As for `CN(C)C(=O)C(=O)N(C)C12CCC(C)(Cn3c1nc(C(=O)NCc1ccc(F)cc1)c(O)c3=O)OC2` (single isomer, unassigned) [Example 21B], the pIC50 in the assay on HIV-1 wild type IIIB (wild type IIIB) is 7.74. Moreover, in the assay on HIV-1, the IC95 worked out at 21.0 nM. Besides, in assay [1], the “G140S/Q148H (shift)” value was over 93 fold. Besides, the “Q148R (shift)” value in assay [2] was determined as 11 fold. Further, in assay [3], the “N155H (shift)” value was found to be 13 fold. For the same compound, in assay [4], the “Y143R (shift)” value is recorded as 3 fold.

In turn, `CCC12CCC(NC(=O)C(=O)N(C)C)(CO1)c1nc(C(=O)NCc3ccc(F)cc3)c(O)c(=O)n1C2` (single isomer, unassigned) [Example 22A, N′-(9-ethyl-4-{[(4-fluorolbenzyl)amino]carbonyl}-5-hydroxy-6-oxo-10-oxa-3,7-diazatricyclo[7.2.2.0^2,7]trideca-2,4-dien-1-yl)-N,N-dimethylethanediamide] had a pIC50 in the assay with HIV-1 wild type IIIB (wild type IIIB) of 8.15. Further, in the assay on HIV-1 (setting [6]), the IC95 worked out at 12.7 nM. For the same compound, the “G140S/Q148H (shift)” value in assay [1] amounted to 198 fold. Further, the “Q148R (shift)” value in assay [2] was 24 fold. In addition, in assay [3], the “N155H (shift)” value is 23 fold. Besides, the “Y143R (shift)” value in assay [4] is given as 5 fold.

In the assay on HIV-1 wild type IIIB (wild type IIIB), `CCC12CCC(NC(=O)C(=O)N(C)C)(CO1)c1nc(C(=O)NCc3ccc(F)cc3)c(O)c(=O)n1C2` (single isomer, unassigned) [Example 22B, N′-(9-ethyl-4-{[(4-fluorolbenzyl)amino]carbonyl}-5-hydroxy-6-oxo-10-oxa-3,7-diazatricyclo[7.2.2.0^2,7]trideca-2,4-dien-1-yl)-N,N-dimethylethanediamide] gave a pIC50 of 7.72. Besides, in the assay with HIV-1, the IC95 came out at 12.6 nM. For the same compound, the “G140S/Q148H (shift)” value in assay [1] stood at 10 fold. Further, the “Q148R (shift)” value in assay [2] is 3 fold. For the same compound, the “N155H (shift)” value in assay [3] was 3 fold. For the same compound, the “Y143R (shift)” value in assay [4] is listed as 1 fold.

For `CN(C)C(=O)C(=O)N(C)C12CCC(Cn3c1nc(C(=O)NCc1ccc(F)cc1)c(O)c3=O)OC2` (single isomer, unassigned) [Example 23A], the pIC50 in the assay on HIV-1 wild type IIIB (wild type IIIB) was 7.68. Also, in the assay with HIV-1, the IC95 was found to be 16.7 nM. Also, the “G140S/Q148H (shift)” value in assay [1] was found to be 84 fold. Moreover, the “Q148R (shift)” value in assay [2] worked out at 6 fold. Further, in assay [3], the “N155H (shift)” value was 7 fold. In addition, in assay [4], the “Y143R (shift)” value turned out to be 1 fold.

On to `CN(C)C(=O)C(=O)N(C)C12CCC(Cn3c1nc(C(=O)NCc1ccc(F)cc1)c(O)c3=O)OC2` (single isomer, unassigned) [Example 23B], for which the pIC50 with HIV-1 wild type IIIB (wild type IIIB) was 8.30. Further, the IC95 in the assay with HIV-1 worked out at 23.6 nM. In addition, the “G140S/Q148H (shift)” value in assay [1] is given as 229 fold. Also, the “Q148R (shift)” value in assay [2] was found to be 253 fold. In assay [3], the “N155H (shift)” value is 136 fold. Besides, the “Y143R (shift)” value in assay [4] came to 7 fold.

In turn, `CN(C)C(=O)C(=O)N(C)C12CCC(CC1)Cn1c2nc(C(=O)NCc2ccc(F)cc2)c(O)c1=O` (single isomer, unassigned) [Example 24A] gave a negative logarithm of the IC50 (pIC50) in the assay on HIV-1 wild type IIIB (setting [5]) of 7.82. In addition, the IC95 in the assay with HIV-1 (setting [6]) came to 11.7 nM. For the same compound, the “G140S/Q148H (shift)” value in assay [1] is over 111 fold. Further, the “Q148R (shift)” value in assay [2] was 5 fold. Also, the “N155H (shift)” value in assay [3] was 4 fold. Besides, in assay [4], the “Y143R (shift)” value is 1 fold.

The compound `CCC1C2CCC(N(C)C(=O)C(=O)N(C)C)(CO2)c2nc(C(=O)NCc3ccc(F)cc3)c(O)c(=O)n21` (single isomer, unassigned) [Example 25A, N-(8-ethyl-4-{[(4-fluorobenzyl)amino]carbonyl}-5-hydroxy-6-oxo-10-oxa-3,7-diazatricyclo[7.2.2.0^2,7]trideca-2,4-dien-1-yl)-N,N′,N′-trimethylethanediamide] had a pIC50 in the assay on HIV-1 wild type IIIB (wild type IIIB) of 7.85. Further, the IC95 in the assay on HIV-1 (setting [6]) came out at 6.3 nM. Moreover, the “G140S/Q148H (shift)” value in assay [1] is reported as 1 fold. In assay [2], the “Q148R (shift)” value came out at 1 fold. Also, the “N155H (shift)” value in assay [3] is 1 fold. The “Y143R (shift)” value in assay [4] stood at 7 fold.

In the case of `CNC(=O)C(=O)N(C)C12CCC(OC1)C(C)n1c2nc(C(=O)NCc2ccc(F)cc2)c(O)c1=O` (single isomer, unassigned) [Example 28B, N-(4-{[(4-fluorobenzyl)amino]carbonyl}-5-hydroxy-8-methyl-6-oxo-10-oxa-3,7-diazatricyclo[7.2.2.0^2,7]trideca-2,4-dien-1-yl)-N,N′-dimethylethanediamide], in the assay on HIV-1, the IC95 amounted to 15.9 nM.

The compound `CC1C2CCC(NC(=O)C(=O)N(C)C)(CO2)c2nc(C(=O)NCc3ccc(F)cc3)c(O)c(=O)n21` (single isomer, unassigned) [Example 29B, N′-(4-{[(4-Fluorobenzyl)amino]carbonyl}-5-hydroxy-8-methyl-6-oxo-10-oxa-3,7-diazatricyclo[7.2.2.0^2,7]trideca-2,4-dien-1-yl)-N-dimethylethanediamide] had a pIC50 with HIV-1 wild type IIIB (wild type IIIB) of 7.16. The “G140S/Q148H (shift)” value in assay [1] was 2 fold. Besides, the “Q148R (shift)” value in assay [2] turned out to be 3 fold. For the same compound, the “N155H (shift)” value in assay [3] is listed as 1 fold. Also, the “Y143R (shift)” value in assay [4] came to 2 fold.

`Cc1nnc(C(=O)NC(C)(C)c2nc(C(=O)NCc3ccc(F)cc3)c(O)c(=O)n2C)o1` [Compound X, raltegravir, reference compound] gave a pIC50 in the assay with HIV-1 wild type IIIB (setting [5]) of 7.28. Moreover, in assay [1], the “G140S/Q148H (shift)” value was 400 fold. The “Q148R (shift)” value in assay [2] is reported as 22 fold. In assay [3], the “N155H (shift)” value came out at 13 fold. In addition, the “Y143R (shift)” value in assay [4] came to 15 fold.

Regarding `CN(C)C(=O)C(=O)N(C)C1CCCCn2c1nc(C(=O)NCc1ccc(F)cc1)c(O)c2=O` (stereo not drawn) [Compound Y, (—)N-(2-{[(4-fluorobenzyl)amino]-carbonyl}-3-hydroxy-4-oxo-4,6,7,8,9,10-hexahydropyrimido[1,2-a]azepin-10-yl)-N,N′,N′-trimethylethanediamide, reference compound], the negative logarithm of the IC50 (pIC50) in the assay with HIV-1 wild type IIIB (setting [5]) is 7.80. The “G140S/Q148H (shift)” value in assay [1] is on record as 410 fold. In addition, in assay [2], the “Q148R (shift)” value is on record as 26 fold. Moreover, in assay [3], the “N155H (shift)” value was 15 fold. Besides, the “Y143R (shift)” value in assay [4] turned out to be 1 fold.

`CC1(C)OCCn2c1nc(C(=O)NCc1ccc(F)cc1)c(O)c2=O` [Compound Z, N-[(4-fluorophenyl)methyl]-3-hydroxy-9,9-dimethyl-4-oxo-4,6,7,9-tetrahydro-6H-pyrimido[2,1-c][1,4]oxazine-2-carboxamide, reference compound] showed a pIC50 with HIV-1 wild type IIIB (wild type IIIB) of 7.47. The “G140S/Q148H (shift)” value in assay [1] is listed as over 34 fold. Also, the “Q148R (shift)” value in assay [2] is listed as over 34 fold. Also, the “N155H (shift)” value in assay [3] is listed as 32 fold. In addition, the “Y143R (shift)” value in assay [4] amounted to 1 fold.

These data come from patent US20120022045A1, “BRIDGED COMPOUNDS AS HIV INTEGRASE INHIBITORS” (priority 2009, published 2012).
